Data published in patent publication US20090036470A1, “PALIPERIDONE DERIVATIVES” (priority 2007, published 2009).

Assay: Conversion of the compound (2) into paliperidone in acidic fluid (dissolution test of the Example 5 tablet in Simulated Gastric Fluid)
Format: physicochemical
Description: Conversion of the Compound (2) into Paliperidone in Acidic Fluid
A tablet of the following composition was prepared:
Compound (2), Prosolv HD-90 and low substituted hydroxypropylcellulose were mixed for 10 minutes at 22 rpm in a free fall mixer. The blend was forced sieved over a 250 micron sieve. The blend was then mixed for another 10 minutes in a free fall mixer at 22 rpm. The sodium stearyl fumarate was sieved over an 800 micron sieve and added to the blend. The blend was mixed for another 5 minutes at 22 rpm. Tablets were compressed on the Ek-0. Tablet mass was 100 mg, tablet hardness 30 N and the tablet diameter was 8 mm.
Determination of the dissolution assay at single point or dissolution profile was performed in Simulated Gastric Fluid (SGF) without pepsin (pH=1.2) with the paddle apparatus based on USP <711>, “Apparatus 2”. The dissolution samples were immediately neutralized to pH=7 upon sampling. The amount of paliperidone and compound (2) in the neutralized dissolution samples at the specified time point(s) was determined by HPLC at 280 nm.

## Cc1nc2n(c(=O)c1CCN1CCC(c3noc4cc(F)ccc34)CC1)CCCC2OC1CCCCO1 (centres unmarked) [Compound (2)]
Simulated Gastric Fluid without pepsin, pH=1.2, USP paddle apparatus 2, from Example 5 tablet (10.8 mg compound (2)), HPLC at 280 nm, six vessel test, FIGS. 1 and 2
  time for quantitative conversion into paliperidone: approx. 10 minutes
Acidic fluid, as shown in FIG. 1
  extent of conversion into paliperidone: quantitatively
